pIC50: −log10 of the molar value. Counter-ions that a name gives are not always drawn.
Tests used:
[1] = biological target: T1, Na^+/H^+ exchange transport system (Rattus norvegicus, UniProt P26431); assay: Inhibitory effect on the Na^+/H^+ exchange transport system (in vitro), pH change in isolated ventricular myocytes under an acidic load; type: cell-based
T1 construct: a pH change in isolated ventricular myocytes (rat) under an acidic load; endogenous in cells; host or cells: isolated rat ventricular myocytes
T1 sequence (P26431 whole entry): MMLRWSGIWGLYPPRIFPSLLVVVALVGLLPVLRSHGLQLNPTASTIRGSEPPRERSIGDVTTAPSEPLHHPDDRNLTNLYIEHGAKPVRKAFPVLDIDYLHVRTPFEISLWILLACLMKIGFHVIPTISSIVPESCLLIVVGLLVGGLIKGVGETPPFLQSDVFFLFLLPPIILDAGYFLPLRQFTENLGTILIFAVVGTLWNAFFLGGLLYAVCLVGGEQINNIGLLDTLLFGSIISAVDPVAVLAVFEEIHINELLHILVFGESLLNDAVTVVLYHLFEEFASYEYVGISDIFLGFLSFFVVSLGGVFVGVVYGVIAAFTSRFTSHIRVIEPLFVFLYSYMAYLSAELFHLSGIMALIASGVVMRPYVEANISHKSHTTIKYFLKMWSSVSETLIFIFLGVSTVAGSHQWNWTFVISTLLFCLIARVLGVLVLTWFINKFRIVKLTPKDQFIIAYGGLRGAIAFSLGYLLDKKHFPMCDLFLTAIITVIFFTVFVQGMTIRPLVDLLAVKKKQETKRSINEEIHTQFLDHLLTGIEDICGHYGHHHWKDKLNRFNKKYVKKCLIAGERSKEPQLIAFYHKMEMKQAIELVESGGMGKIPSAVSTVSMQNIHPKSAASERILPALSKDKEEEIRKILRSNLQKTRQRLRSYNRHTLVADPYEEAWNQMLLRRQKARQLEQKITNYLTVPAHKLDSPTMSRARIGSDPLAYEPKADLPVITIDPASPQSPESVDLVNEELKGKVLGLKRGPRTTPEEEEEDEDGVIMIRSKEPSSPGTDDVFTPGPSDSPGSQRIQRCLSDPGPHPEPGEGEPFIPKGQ
Description: Inhibitory Effect on the Na^+/H^+ Exchange Transport System (in vitro)
A test was carried out according to the method of Iemori et al. (J. Hypertension, 8, 153(1990)). In detail, inhibitory effect on the Na^+/H^+ exchange transport system was evaluated by using as an indication a pH change in isolated ventricular myocytes (rat) under an acidic load.

Row | pIC50 [1] | melting point | Structure (SMILES)
1 |  | 298 °C (dec.) | Cc1cccc2c1cc(C(=O)NC(=N)N)n2CCCS(=O)(=O)O [Example 29, 3-[2-[[[Amino(imino)methyl]amino]carbonyl]-4-methyl-1H-indol-1-yl]-1-propanesulfonic Acid]
2 |  | 248 to 252 °C (dec.) | Cc1ccc(OCC(=O)O)c2c1cc(C(=O)NC(=N)N)n2C [Example 26, [[2-[[[Amino(imino)methyl]amino]carbonyl]-1,4-dimethyl-1H-indol-7-yl]oxy]acetic Acid]
3 |  | 277 °C (dec.) | Cn1c(C(=O)NC(=N)N)cc2c(C(F)(F)F)cc(CCP(=O)(O)O)cc21 [Example 51, 2-[2-[[[amino(imino)methyl]-amino]carbonyl]-1-methyl-4-(trifluoromethyl)-1H-indol-6-yl]ethylphosphonic Acid]
4 |  | 270 °C (dec.) | Cc1ccc(OCP(=O)(O)O)c2c1cc(C(=O)NC(=N)N)n2C [Example 50, [[2-[[[Amino(imino)methyl]amino]carbonyl]-1,4-dimethyl-1H-indol-7-yl]oxy]methylphosphonic Acid]
5 |  | 250 to 266 °C (dec.) | Cn1c(C(=O)NC(=N)N)cc2c(C(F)(F)F)cc(OCC(=O)O)cc21 [Example 21, [[2-[[[amino(imino)methyl]-amino]carbonyl]-1-methyl-4-(trifluoromethyl)-1H-indol-6-yl]oxy]acetic Acid]
6 |  | ≥ 300 °C | Cn1c(C(=O)NC(=N)N)cc2c(Cl)cc(CCS(=O)(=O)O)cc21 [Example 41, 2-[2-[[[Amino(imino)methyl]amino]carbonyl]-4-chloro-1-methyl-1H-indol-6-yl]ethanesulfonic Acid]
7 |  | 290 °C (dec.) | Cc1cc(OCCCS(=O)(=O)O)cc2c1cc(C(=O)NC(=N)N)n2C [Example 35, 3-[[2-[[[Amino(imino)methyl]amino]carbonyl]-1,4-dimethyl-1H-indol-6-yl]oxy]-1-propanesulfonic Acid]

Continued, compound first:

Row | Structure (SMILES) | pIC50 [1] | melting point
8 | Cc1c(OS(=O)(=O)O)ccc2c1cc(C(=O)NC(=N)N)n2C [Example 1, 2-[[[amino(imino)methyl]amino]-carbonyl]-1,4-dimethyl-1H-indol-5-yl Hydrogen Sulfate] | 5.00 | 
9 | Cc1ccc(OS(=O)(=O)O)c2c1cc(C(=O)NC(=N)N)n2C [Example 4, 2-[[[amino(imino)methyl]amino]-carbonyl]-1,4-dimethyl-1H-indol-7-yl Hydrogen Sulfate] | 6.70 | 
10 | Cc1cc(OS(=O)(=O)O)cc2c1cc(C(=O)NC(=N)N)n2C [Example 2, 2-[[[Amino(imino)methyl]amino]carbonyl]-1,4-dimethyl-1H-indol-6-yl Hydrogen Sulfate] | 7.15 | 
11 | Cn1c(C(=O)NC(=N)N)cc2c(C(F)(F)F)cc(OS(=O)(=O)O)cc21 (as salt: sulfate) [Example 12, 2-[[[Amino(imino)methyl]amino]carbonyl]-1-methyl-4-(trifluoromethyl)-1H-indol-6-yl Hydrogen Sulfate] |  | 300 °C (dec.)
12 | Cn1c(C(=O)NC(=N)N)cc2c(Cl)cc(CP(=O)(O)O)cc21 [Example 17, [2-[[[Amino(imino)methyl]amino]carbonyl]-4-chloro-1-methyl-1H-indol-6-yl]methylphosphonic Acid] |  | 265 to 282 °C (dec.)
13 | CS(=O)(=O)O.Cn1c(C(=O)NC(=N)N)cc2cc(O[C@@H]3O[C@H](C(=O)O)[C@@H](O)[C@H](O)[C@H]3O)ccc21 [Example 9, [2-[[[Amino(imino)methyl]amino]carbonyl]-1-methyl-1H-indol-5-yl] β-D-glucopyranosideuronic Acid Methanesulfonate] |  | 219 °C (dec.)
14 | Cn1c(C(=O)NC(=N)N)cc2c(Cl)ccc(OS(=O)(=O)O)c21 (as salt: sulfate) [Example 14, 2-[[[Amino(imino)methyl]amino]carbonyl]-4-chloro-1-methyl-1H-indol-7-yl Hydrogen Sulfate] |  | 338 °C (dec.)
15 | Cn1c(C(=O)NC(=N)N)cc2c(OS(=O)(=O)O)cccc21 (as salt: sulfate) [Example 5, 2-[[[Amino(imino)methyl]amino]carbonyl]-1-methyl-1H-indol-4-yl Hydrogen Sulfate] |  | 249 to 250 °C (dec.)
16 | Cn1c(C(=O)NC(=N)N)cc2cccc(OS(=O)(=O)O)c21 (as salt: sulfate) [Example 3, 2-[[[Amino(imino)methyl]amino]carbonyl]-1-methyl-1H-indol-7-yl Hydrogen Sulfate] |  | 279 to 280 °C (dec.)
